Experimental data published in patent US20020193319A1, “Use of EGF genistein to prevent development of EGF-receptor expressing cancers” (Parker Hughes Institute, priority 1999, published 2002).
Like-named read-outs stand apart in the source and are kept apart here.

What was measured:
[1] = tested on: human breast cancer (MDA-MB-231) xenografts; assay type: in vivo; conditions: 100 μg/kg/day intraperitoneally for 10 days, followed 20 days, vs PBS or unconjugated Genistein
Method: The tumor diameter was determined daily for 20 days from the start of therapy. Control mice were treated with 0.2 ml of PBS for 10 consecutive days or unconjugated Genistein at a concentration of 500 μg/kg/day for 10 days. P values were determined using Student's t test.

[2] = tested on: Neu mediated mammary tumors; experiment: Prevention of spontaneous breast cancer in Neu/erbB2 transgenic mice; assay type: in vivo
Method: Neu/erbB2 transgenic mice were chosen because they overexpress the Neu protooncogene in their mammary glands.
As a control, 29 Neu/erbB2 mice were treated with PBS.

MDA-MB-231 cells = experiment: FACS MC540/propidium iodide apoptosis assay; assay type: cell-based, human; conditions: 24 hours
Method: Fluorescence activated cell sorting (FACS) was used to sort MDA-MB-231 cells (breast cancer cells expressing EGF-Rc). The cells were treated with either PBS EFG-Genistein (0.1, 1, and 10 μM) or unconjugated Geninstein (1, 10, and 100 μM) and incubated for 24 hours. The cells were then stained with MC-540 and propidium iodide. Single MC540 fluorescence (S-MC540) indicates the cell is at an early stage of apoptosis. Dual MC540/propidium iodide fluorescence (D-MC540/PI) indicates the cell is at an advanced stage of apoptosis. The total apoptotic fraction (TAF) is calculated as the percentage of MC540 fluorescent cells plus the percentage of MC540/propidium iodide double fluorescent cells.

EGF-Genistein: Genistein conjugated to epidermal growth factor (EGF), prepared as in Example 1 of U.S. Pat. No. 5,911,995
tumor progression (tumor diameter) ([1]; 0.5 cm xenograft, FIG. 3A): reversed | tumor progression (tumor diameter) ([1]; 1.0 cm xenograft, FIG. 3B): slowed | side effects ([2]; 100 μg 1× per week for 10 weeks): not associated with any side effects | mice that developed breast cancer ([2]; 100 μg subcutaneously 1× per week for 10 weeks (5 mg/kg), from 4 months old, n=10): 40% | % S-MC540 (Single MC540, early stage of apoptosis) (MDA-MB-231 cells; 0.1 μM): 78.8% | % TAF (total apoptotic fraction: Single MC540 plus Dual MC540/propidium iodide) (MDA-MB-231 cells; 0.1 μM): 98.7% | % D-MC540/PI (Dual MC540/propidium iodide, advanced stage of apoptosis) (MDA-MB-231 cells; 1 μM): 36.6% | % S-MC540 (Single MC540, early stage of apoptosis) (MDA-MB-231 cells; 1 μM): 61.0% | % TAF (total apoptotic fraction: Single MC540 plus Dual MC540/propidium iodide) (MDA-MB-231 cells; 1 μM): 97.6% | % D-MC540/PI (Dual MC540/propidium iodide, advanced stage of apoptosis) (MDA-MB-231 cells; 10 μM): 56.7% | % S-MC540 (Single MC540, early stage of apoptosis) (MDA-MB-231 cells; 10 μM): 42.2% | % TAF (total apoptotic fraction: Single MC540 plus Dual MC540/propidium iodide) (MDA-MB-231 cells; 10 μM): 98.9%

EGF: Human epidermal growth factor, six kilodalton 53 amino acid single-chain polypeptide
% D-MC540/PI (Dual MC540/propidium iodide, advanced stage of apoptosis) (MDA-MB-231 cells; 1 μM): 0.8% | % S-MC540 (Single MC540, early stage of apoptosis) (MDA-MB-231 cells; 1 μM): 5.5% | % TAF (total apoptotic fraction: Single MC540 plus Dual MC540/propidium iodide) (MDA-MB-231 cells; 1 μM): 6.3% | % D-MC540/PI (Dual MC540/propidium iodide, advanced stage of apoptosis) (MDA-MB-231 cells; 10 μM): 1.2% | % S-MC540 (Single MC540, early stage of apoptosis) (MDA-MB-231 cells; 10 μM): 9.5% | % TAF (total apoptotic fraction: Single MC540 plus Dual MC540/propidium iodide) (MDA-MB-231 cells; 10 μM): 10.7% | % D-MC540/PI (Dual MC540/propidium iodide, advanced stage of apoptosis) (MDA-MB-231 cells; 100 μM): 2.0% | % S-MC540 (Single MC540, early stage of apoptosis) (MDA-MB-231 cells; 100 μM): 13.5% | % TAF (total apoptotic fraction: Single MC540 plus Dual MC540/propidium iodide) (MDA-MB-231 cells; 100 μM): 15.5%
